From ChEMBL document CHEMBL1201862, “PubChem BioAssay data set” (2004) come the findings set out here.

In general, EC50 refers to the midpoint of the concentration-response curve. As usually defined, the AC50 is the concentration at which the activity in the assay is half-maximal.

The target in test [1] is T1, Sentrin-specific protease 6 (Homo sapiens, UniProt Q9GZR1).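 Also: Luminescence-based dose-response confirmatory assay of SENP6 inhibition, following up an ultra-high-throughput screen.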
T1 sequence (Q9GZR1 whole entry): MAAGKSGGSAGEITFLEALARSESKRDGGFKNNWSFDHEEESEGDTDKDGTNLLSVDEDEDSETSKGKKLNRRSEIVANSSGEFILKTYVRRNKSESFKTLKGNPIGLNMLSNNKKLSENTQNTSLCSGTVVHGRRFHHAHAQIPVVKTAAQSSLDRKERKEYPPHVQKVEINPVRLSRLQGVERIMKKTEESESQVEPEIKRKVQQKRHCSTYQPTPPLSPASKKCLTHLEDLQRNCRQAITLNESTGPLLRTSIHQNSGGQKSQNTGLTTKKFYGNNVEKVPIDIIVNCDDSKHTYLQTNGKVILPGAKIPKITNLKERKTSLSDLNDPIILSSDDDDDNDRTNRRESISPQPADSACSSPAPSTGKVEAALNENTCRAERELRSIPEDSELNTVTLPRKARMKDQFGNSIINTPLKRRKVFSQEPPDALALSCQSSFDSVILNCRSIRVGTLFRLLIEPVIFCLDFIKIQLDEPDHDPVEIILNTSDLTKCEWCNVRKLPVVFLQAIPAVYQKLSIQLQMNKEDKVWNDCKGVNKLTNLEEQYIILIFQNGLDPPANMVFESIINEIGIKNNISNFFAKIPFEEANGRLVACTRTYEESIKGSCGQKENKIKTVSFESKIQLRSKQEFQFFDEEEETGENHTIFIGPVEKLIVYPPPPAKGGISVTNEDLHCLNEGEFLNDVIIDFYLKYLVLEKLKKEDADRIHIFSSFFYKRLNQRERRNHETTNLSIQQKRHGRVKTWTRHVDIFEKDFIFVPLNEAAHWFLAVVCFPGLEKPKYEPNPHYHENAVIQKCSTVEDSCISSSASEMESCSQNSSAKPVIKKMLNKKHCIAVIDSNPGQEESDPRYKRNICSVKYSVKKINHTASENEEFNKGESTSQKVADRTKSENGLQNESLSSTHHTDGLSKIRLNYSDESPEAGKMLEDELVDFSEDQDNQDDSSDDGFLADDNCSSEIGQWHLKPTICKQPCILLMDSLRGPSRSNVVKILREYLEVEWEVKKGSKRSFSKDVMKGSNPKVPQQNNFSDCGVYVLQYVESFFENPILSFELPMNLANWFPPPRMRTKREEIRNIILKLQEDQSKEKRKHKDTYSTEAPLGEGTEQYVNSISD
The test is classed as functional.

In test [2] the target is T2, Sentrin-specific protease 8 (Homo sapiens, UniProt Q96LD8).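 Also: luminescence read-out of SENP8 inhibition, dose-response confirmation following an ultra-high-throughput screen.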
T2 sequence (Q96LD8 whole entry): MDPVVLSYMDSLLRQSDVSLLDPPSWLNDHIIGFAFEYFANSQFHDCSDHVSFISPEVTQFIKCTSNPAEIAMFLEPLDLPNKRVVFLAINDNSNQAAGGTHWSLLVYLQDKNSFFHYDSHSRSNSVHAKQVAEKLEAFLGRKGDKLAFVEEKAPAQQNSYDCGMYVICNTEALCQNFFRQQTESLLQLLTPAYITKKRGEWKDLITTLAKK
The test is classed as functional.

Test [3] addresses T3, Sentrin-specific protease 7 (Homo sapiens, UniProt Q9BQF6).
T3 sequence (Q9BQF6 whole entry): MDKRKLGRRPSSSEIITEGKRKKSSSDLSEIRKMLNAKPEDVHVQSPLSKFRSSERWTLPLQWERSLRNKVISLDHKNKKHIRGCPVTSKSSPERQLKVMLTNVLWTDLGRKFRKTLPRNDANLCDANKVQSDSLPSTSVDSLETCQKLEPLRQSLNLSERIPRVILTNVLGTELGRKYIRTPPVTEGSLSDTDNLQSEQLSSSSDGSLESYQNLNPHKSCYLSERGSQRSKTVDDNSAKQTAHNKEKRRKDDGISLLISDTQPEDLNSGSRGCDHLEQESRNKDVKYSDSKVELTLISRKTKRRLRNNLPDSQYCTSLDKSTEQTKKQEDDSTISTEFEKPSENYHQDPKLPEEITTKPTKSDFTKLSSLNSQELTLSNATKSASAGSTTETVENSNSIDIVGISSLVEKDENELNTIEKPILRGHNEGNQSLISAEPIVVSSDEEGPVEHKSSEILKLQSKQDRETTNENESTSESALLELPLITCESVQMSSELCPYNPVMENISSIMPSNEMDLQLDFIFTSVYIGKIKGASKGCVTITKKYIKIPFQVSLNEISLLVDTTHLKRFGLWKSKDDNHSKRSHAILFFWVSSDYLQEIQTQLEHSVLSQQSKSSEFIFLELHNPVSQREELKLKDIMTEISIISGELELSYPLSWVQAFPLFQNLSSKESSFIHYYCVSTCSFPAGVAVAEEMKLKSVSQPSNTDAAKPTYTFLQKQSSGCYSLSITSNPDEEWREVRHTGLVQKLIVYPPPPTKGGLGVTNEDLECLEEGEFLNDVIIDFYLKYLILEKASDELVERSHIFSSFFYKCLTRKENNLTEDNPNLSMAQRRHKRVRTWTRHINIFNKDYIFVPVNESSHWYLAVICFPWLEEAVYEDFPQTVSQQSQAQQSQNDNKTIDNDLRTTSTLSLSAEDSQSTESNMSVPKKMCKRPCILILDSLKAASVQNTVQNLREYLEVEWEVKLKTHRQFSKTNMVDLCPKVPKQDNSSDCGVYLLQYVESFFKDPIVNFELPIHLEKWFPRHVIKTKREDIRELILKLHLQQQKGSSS
It counts as functional.

In test [4] the target is T4, Caspase-3 (Homo sapiens, UniProt P42574).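 Also: Dose-response selectivity test against caspase-3 for candidate inhibitors of sentrin-specific proteases (SENPs).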
T4 sequence (P42574 whole entry): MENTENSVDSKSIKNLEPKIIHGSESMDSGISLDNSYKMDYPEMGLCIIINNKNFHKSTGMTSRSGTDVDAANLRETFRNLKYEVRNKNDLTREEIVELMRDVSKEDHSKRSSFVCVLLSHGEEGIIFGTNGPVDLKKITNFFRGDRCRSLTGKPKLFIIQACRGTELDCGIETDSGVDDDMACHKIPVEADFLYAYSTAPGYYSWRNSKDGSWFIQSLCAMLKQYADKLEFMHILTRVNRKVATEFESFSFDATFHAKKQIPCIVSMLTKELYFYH
The test is classed as functional.

Test [5] has as its target T5, Protein skinhead-1 (Caenorhabditis elegans, UniProt P34707).
T5 sequence (P34707 whole entry): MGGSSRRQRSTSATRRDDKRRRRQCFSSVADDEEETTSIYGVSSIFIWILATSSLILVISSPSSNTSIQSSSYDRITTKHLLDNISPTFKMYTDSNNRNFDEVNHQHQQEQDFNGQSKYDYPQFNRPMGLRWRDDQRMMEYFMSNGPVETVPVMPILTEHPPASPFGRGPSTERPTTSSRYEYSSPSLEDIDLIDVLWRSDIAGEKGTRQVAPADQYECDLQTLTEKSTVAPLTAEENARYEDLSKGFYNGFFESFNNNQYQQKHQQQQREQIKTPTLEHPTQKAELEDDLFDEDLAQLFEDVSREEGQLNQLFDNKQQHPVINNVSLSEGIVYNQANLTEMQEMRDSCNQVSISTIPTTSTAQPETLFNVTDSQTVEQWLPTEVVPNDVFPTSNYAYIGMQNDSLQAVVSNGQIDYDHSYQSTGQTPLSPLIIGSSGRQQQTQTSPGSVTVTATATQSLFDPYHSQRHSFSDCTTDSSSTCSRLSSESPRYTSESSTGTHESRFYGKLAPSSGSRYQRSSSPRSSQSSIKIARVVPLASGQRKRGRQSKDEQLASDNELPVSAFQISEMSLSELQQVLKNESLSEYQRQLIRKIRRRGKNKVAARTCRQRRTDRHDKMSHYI
The test is classed as functional.

The test system of test [6] is H4. Put plainly: Luminescence Cell-Based Dose Response HTS to Identify Activators of 5'UTR Stem-Loop Driven Prion Protein mRNA Translation in H4 Neuroglioblastoma Cells. [Related pubchem assays: 1829 (Project Summary), 1814 (Primary HTS)]. The test is classed as functional. Particulars: Homo sapiens.
Test [7] in a line: Luminescence Cell-Based Dose Response HTS to Identify Activators of Luciferase Translation or Activity in H4 […] Cells. [Related pubchem assays: 1829 (Project Summary), 1814 (Primary HTS)]. The test is classed as functional.
The nature of test [8]: Luminescence Cell-Based Dose Confirmation HTS to Identify Activators of 5'UTR Stem-Loop Driven Alpha-Synuclein mRNA Translation in H4 Neuroglioblastoma Cells. [Related pubchem assays: 1829 (Project Summary), 1814 (Primary HTS)]. It counts as functional.
The target of test [9] is Induced myeloid leukemia cell differentiation protein Mcl-1 (Homo sapiens, UniProt Q07820). The test is classed as functional.
Sequence of Induced myeloid leukemia cell differentiation protein Mcl-1 (Q07820 whole entry): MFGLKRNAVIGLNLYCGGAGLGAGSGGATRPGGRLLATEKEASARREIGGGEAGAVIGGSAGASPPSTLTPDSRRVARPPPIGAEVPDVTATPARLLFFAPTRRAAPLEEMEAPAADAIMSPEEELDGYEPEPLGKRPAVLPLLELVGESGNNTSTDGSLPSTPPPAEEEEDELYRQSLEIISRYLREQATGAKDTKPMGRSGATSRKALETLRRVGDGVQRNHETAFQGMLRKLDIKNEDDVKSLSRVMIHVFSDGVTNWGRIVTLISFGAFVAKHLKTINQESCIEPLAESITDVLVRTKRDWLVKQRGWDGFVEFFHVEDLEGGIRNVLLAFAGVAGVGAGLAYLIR
Test [10] deals with T6, Small ubiquitin-related modifier 1 (Homo sapiens, UniProt P63165). Put plainly: inhibitors of SUMO1 peptide binding, dose response, biochemical, fluorescence polarization, uHTS hits (AID 624382). It counts as functional. Particulars: read-out: IC50_Mean. (In general: Fluorescence polarisation rises when a labelled molecule tumbles more slowly, as on binding a larger partner.)
T6 sequence (P63165 whole entry): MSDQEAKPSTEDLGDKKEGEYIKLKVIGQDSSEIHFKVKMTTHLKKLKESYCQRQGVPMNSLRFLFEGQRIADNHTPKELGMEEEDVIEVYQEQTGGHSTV

Test [11] deals with T6, Small ubiquitin-related modifier 1. Put plainly: inhibitors of SUMO1 partner interactions, dose response, biochemical, FRET (AID 624383). The test is classed as functional. To be noted: read-out: IC50_Mean.
Test [12] concerns INS1. Put plainly: beta cell apoptosis inhibitors, cytokine rescue, dose response, luminescence, retest (AID 449756).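 Also: cell death triggered by IL-1 beta plus TNF-alpha plus IFN-gamma mixture; protective hits raise ATP signal compared with cytokine alone wells.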 The test is classed as functional, cell-based. To be noted: Rattus norvegicus.
Test [13] addresses Fatty acid synthase (Homo sapiens, UniProt P49327). Put plainly: FAS thioesterase domain inhibitors, dose response, biochemical, kinetic fluorescence intensity (AID 624326).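 Also: rate of fluorescence rise from hydrolysis of a fluorogenic O-methyl fluorescein ester substrate.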 It counts as functional.

The source made the active and inactive calls.

Sequence of Fatty acid synthase (P49327 whole entry, the tested form may be a part): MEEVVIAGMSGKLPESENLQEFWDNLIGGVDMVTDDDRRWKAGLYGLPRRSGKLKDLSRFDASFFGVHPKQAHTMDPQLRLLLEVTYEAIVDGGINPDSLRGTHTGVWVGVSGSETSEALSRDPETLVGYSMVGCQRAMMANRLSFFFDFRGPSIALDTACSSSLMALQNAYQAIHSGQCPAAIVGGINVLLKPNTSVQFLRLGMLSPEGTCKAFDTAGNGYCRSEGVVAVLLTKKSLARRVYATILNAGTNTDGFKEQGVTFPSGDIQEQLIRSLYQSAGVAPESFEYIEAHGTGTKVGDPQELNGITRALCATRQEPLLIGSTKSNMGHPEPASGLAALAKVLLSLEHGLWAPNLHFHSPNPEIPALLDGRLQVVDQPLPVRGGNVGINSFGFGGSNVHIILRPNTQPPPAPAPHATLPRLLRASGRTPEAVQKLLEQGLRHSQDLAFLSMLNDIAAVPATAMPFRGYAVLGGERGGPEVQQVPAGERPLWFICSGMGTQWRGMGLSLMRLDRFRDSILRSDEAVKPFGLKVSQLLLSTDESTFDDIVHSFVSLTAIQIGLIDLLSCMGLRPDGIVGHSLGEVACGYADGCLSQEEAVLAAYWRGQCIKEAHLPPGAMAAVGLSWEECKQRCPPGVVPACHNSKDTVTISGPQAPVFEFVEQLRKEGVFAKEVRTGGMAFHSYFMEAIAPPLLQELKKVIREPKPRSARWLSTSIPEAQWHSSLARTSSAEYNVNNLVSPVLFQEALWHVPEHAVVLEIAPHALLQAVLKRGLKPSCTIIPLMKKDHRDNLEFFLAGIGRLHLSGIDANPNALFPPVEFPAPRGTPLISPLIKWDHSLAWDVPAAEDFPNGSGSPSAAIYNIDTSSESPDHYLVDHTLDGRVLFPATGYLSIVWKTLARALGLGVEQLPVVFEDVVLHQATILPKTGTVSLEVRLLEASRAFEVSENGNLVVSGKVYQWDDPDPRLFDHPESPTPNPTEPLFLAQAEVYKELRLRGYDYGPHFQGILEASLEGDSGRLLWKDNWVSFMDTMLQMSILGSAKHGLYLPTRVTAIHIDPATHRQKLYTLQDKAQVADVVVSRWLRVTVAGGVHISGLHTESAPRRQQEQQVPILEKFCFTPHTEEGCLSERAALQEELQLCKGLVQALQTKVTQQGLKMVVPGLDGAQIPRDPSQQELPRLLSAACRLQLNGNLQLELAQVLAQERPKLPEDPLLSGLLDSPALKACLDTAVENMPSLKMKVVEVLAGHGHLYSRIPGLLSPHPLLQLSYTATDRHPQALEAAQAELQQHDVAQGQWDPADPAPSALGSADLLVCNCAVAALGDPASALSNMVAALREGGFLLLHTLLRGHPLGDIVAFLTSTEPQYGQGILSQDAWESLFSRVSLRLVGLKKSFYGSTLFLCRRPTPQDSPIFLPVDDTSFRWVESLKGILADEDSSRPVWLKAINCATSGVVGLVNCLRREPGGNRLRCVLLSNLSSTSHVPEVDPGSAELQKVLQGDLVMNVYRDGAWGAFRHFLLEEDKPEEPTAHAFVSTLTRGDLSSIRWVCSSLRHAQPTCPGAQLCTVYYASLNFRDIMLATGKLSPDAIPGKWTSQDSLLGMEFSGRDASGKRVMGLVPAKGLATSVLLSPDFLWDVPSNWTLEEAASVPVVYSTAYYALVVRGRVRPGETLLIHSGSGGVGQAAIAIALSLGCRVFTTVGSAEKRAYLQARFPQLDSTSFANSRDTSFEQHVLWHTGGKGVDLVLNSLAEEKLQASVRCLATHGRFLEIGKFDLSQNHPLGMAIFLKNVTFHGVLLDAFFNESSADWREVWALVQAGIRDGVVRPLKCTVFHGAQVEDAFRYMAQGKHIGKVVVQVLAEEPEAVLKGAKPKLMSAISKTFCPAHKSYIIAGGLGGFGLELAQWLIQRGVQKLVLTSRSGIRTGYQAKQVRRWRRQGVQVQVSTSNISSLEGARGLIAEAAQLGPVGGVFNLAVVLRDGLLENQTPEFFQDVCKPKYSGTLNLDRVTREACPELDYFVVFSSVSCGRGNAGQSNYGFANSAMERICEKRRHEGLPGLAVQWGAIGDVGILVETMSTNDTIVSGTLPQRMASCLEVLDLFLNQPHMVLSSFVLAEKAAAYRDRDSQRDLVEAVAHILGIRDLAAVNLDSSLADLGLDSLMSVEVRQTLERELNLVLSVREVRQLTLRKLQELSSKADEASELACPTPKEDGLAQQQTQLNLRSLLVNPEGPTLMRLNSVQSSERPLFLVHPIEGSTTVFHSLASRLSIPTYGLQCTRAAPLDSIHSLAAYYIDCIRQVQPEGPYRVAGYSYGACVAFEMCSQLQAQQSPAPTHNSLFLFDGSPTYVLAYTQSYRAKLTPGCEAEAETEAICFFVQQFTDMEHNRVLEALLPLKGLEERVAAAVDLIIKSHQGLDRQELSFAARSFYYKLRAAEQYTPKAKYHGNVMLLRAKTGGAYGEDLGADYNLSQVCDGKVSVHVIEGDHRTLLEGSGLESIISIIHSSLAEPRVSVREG

For `O=C(CCCc1ccccc1)c1ccccc1`, the IC50 in test [1] was 20.4 µM (active); in test [2] it was 54.9 µM (active); in test [3], 7.31 µM (active); in test [4] it was 13.5 µM (active).

In the case of `O=C(Nc1nccs1)c1ccc(-c2ccccc2Cl)o1`, the IC50 is > 100 µM (inactive) in test [5]; > 100 µM (inactive) in [1]; 25.1 µM (active) in [2]; 4.57 µM (active) in [3]; 22 µM (active) in test [4]. For the same compound, the EC50 is 23.5 µM (inconclusive) in test [6], 106 µM (active) in test [7] and 27 µM (active) in [8].

Consider `O=C(Nc1ccc(Nc2ccncc2)cc1)c1ccc(Nc2ccnc3ccc([N+](=O)[O-])cc23)cc1[N+](=O)[O-]`, for which the values for the IC50 in test [9], in test [10] and in test [11] were 2.46 µM (active), > 66.6 µM (inactive) and 10.3 µM (active), respectively. In addition, the AC50 in test [12] was 10.5 µM (active).

For the compound `O=C(OCc1ccc([N+](=O)[O-])cc1)c1cc([N+](=O)[O-])ccc1N1CCOCC1`, the IC50 in [13] is 2.73 µM (active).
